Read-outs that look alike come from different tables or passages of the source. Values belong to the compound of their own block, whether it stands above or below them.
What was measured:
Hep G2 cells = test: MTT cell proliferation assay, Hep G2; format: cell-based; conditions: Homo sapiens, HepG2, incubation approximately 64-72 hours
Procedure: (§1) The MTT cell proliferation assay was used to study the cytotoxic properties of the compounds. The assay was performed according to the method described by Roche Molecular Biochemicals, with minor modifications. The assay is based on the cleavage of the tetrazolium salt, MTT, in the presence of an electron-coupling reagent. The water-insoluble formazan salt produced must be solubilized in an additional step. Cells grown in a 96-well tissue culture plate were incubated with the MTT solution for approximately 4 hours. After this incubation period, a water-insoluble formazan dye formed. After solubilization, the formazan dye was quantitated using a scanning multi-well spectrophotometer (ELISA reader). […] The cells were seeded at 5,000-10,000 cells in each well of 96-well plate in 100 μL of fresh culture medium and were allowed to attach overnight. The stock solutions of the compounds were diluted in 100 μL cell culture medium to obtain eight concentrations of each test compound, ranging from 1 nM to 30 μM. […] All optical densities were measured at 490 nm using a Vmax Kinetic Microplate Reader (Molecular Devices). In most cases, the assay was performed in duplicate and the results were presented as a mean percent inhibition to the negative control±SE. The following formula was used to calculate the percent of inhibition: Inhibition (%)=(1-(ODo/OD)) ×100.
The M24 cell line is derived from human melanoma cells. The U2OS cell line is a human osteosarcoma cell line expressing wild type p53 and Rb, but lacking p16. The MM1S cell line is a multiple myeloma cell line; the parent cell line, MM.1, was established from peripheral blood of a multiple myeloma patient who had become resistant to steroid-based therapy. The RPMI8226 cell line is derived from human B lymphocyte cells. NHDF cells are normal human dermal fibroblast cells. The MRC-5 cell line is derived from normal lung tissue of a fetus. The LN18 cell line is a human malignant glioma cell line. The DU-145 cell line is a human prostate cancer cell line. A549 cells are human adenocarcinomic human alveolar basal epithelial cells. The MOLT4 cell line is a human acute lymphoblastic leukemia cell line. The THP1 cell line is a human leukemic monocytic cell line derived from peripheral blood. The OCIAML5 cell line is a human acute myeloid leukemia cell line. The MDA-MB-231 cell line is a human breast adenocarcinoma cell line. The MDA-MB-468 cell line is a human breast carcinoma cell line. HL-60 cells are human promyelocytic leukemia cells. Hep G2 cells are human hepatocellular carcinoma cells. HEP 3B cells are human hepatocellular carcinoma cells. The DLD-1 cell line is a colorectal adenocarcinoma cell line. The HCT-15 cell line is a human colon carcinoma cell line. The Colo-205 cell line is derived from a human adenocarcinoma of the colon. […]

Z138 cells = test: MTT cell proliferation assay, Z138; format: cell-based; conditions: Homo sapiens, Z-138, Z138 cells, read-out: MTT Assay IC50, Z138
In short: (§2)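 Absorbance at 490 nm of solubilized formazan, produced during roughly 4 h MTT incubation, gave percent inhibition relative to negative control. Compounds spanned eight concentrations between 1 nM and 30 μM on cells plated overnight at 5,000-10,000 per well.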

[1] = tested on: PAK4 interactors and downstream proteins; test: Immunoblots of PAK4 interactors and downstream proteins in U2OS cells; format: cell-based, human; conditions: 0.5 μM or 5 μM, 72 hours
Procedure: Immunoblots were used to measure the effects of exemplary compounds on protein steady-state levels and phophorylation of PAK4 interactor and downstream proteins. Specifically, U2OS (osteosarcoma) cells were split and plated on day 1. After overnight attachment to the tissue culture plate, cells were treated with either DMSO (0), 37 nM, 111 nM, 333 nM, 1 μM, or 3 μM Compound 246 for 72 hours. Cells were collected, washed and lysed in RIPA buffer. After obtaining the protein concentration by BCA assay, lysates were boiled in loading buffer and run on SDS-PAGE. The gels were transferred to nitrocellulose membranes and blotted with antibodies raised against phosphor-PAK4, PAK4, phophos-beta-catenin, beta-catenin, GEF-H1, phospho-Akt, Akt, phospho-ERK1/2, ERK1/2, phospho-cofilin, cofilin, phospho-histone H3, histone H3, cyclin D1, Mcl-1, Bcl-2, p21, survivin, caspase 8, caspase 3, PARP, and beta-actin (loading control).
In another experiment, U2OS (osteosarcoma) cells were split and plated on day 1. After overnight attachment to the tissue culture plate, cells were treated with DMSO (Ct), 0.5 μM, or 5 μM of Compound 124, 369, 226, 246, or 907 for 72 hours. Cells were collected, washed and lysed in RIPA buffer. After obtaining the protein concentration by BCA assay, lysates were boiled in loading buffer and run on SDS-PAGE. The gels were transferred to nitrocellulose membranes and blotted with antibodies raised against phophos-beta-catenin, cyclin D1, PAK4, phospho-cofilin, and beta-actin (loading control).

HEP 3B cells = test: MTT cell proliferation assay, HEP 3B; format: cell-based; conditions: Homo sapiens, Hep3B, incubation approximately 64-72 hours
Procedure: as §1
(§3) The M24 cell line is derived from human melanoma cells. The U2OS cell line is a human osteosarcoma cell line expressing wild type p53 and Rb, but lacking p16. The MM1S cell line is a multiple myeloma cell line; the parent cell line, MM.1, was established from peripheral blood of a multiple myeloma patient who had become resistant to steroid-based therapy. The RPMI8226 cell line is derived from human B lymphocyte cells. NHDF cells are normal human dermal fibroblast cells. The MRC-5 cell line is derived from normal lung tissue of a fetus. The LN18 cell line is a human malignant glioma cell line. The DU-145 cell line is a human prostate cancer cell line. A549 cells are human adenocarcinomic human alveolar basal epithelial cells. […]

3T3 cells = test: MTT cell proliferation assay, 3T3; format: cell-based, mouse; conditions: Mus musculus, NIH3T3, 3T3 cells, read-out: MTT Assay IC50, 3T3
In short: as §2

UCH-2 cell line = test: MTT cell proliferation assay, UCH-2; format: cell-based; conditions: UCH2, incubation approximately 64-72 hours
Procedure: as §1, with “×100. […]” for “×100.”

SNU-182 cell line = test: MTT cell proliferation assay, SNU-182; format: cell-based; conditions: Homo sapiens, incubation approximately 64-72 hours
Procedure: as §1, with “×100. […]” for “×100.”

MS751 cells = test: MTT cell proliferation assay, MS751; format: cell-based, human; conditions: Homo sapiens, MS751, MS751 cells, read-out: MTT Assay IC50, MS751
In short: as §2

L3.6pl cell line = test: MTT cell proliferation assay, L3.6pl; format: cell-based; conditions: Homo sapiens, incubation approximately 64-72 hours
Procedure: as §1, with “×100. […]” for “×100.”

Daudi cell line = test: MTT cell proliferation assay, Daudi; format: cell-based; conditions: Homo sapiens, incubation approximately 64-72 hours
Procedure: as §1, with “×100. […]” for “×100.”

LN18 cell line = test: MTT cell proliferation assay, LN18; format: cell-based; conditions: Homo sapiens, LN-18, incubation approximately 64-72 hours
Procedure: as §1, with “×100. […]” for “×100.”

HL-60 cells = test: MTT cell proliferation assay, HL-60; format: cell-based; conditions: Homo sapiens, incubation approximately 64-72 hours
Procedure: as §1, with “×100. […]” for “×100.”

THP1 cell line = test: MTT cell proliferation assay, THP1; format: cell-based; conditions: Homo sapiens, THP-1, incubation approximately 64-72 hours
Procedure: as §1, with “×100. […]” for “×100.”

MM1S cell line = test: MTT cell proliferation assay, MM1S; format: cell-based; conditions: Homo sapiens, MM1.S, incubation approximately 64-72 hours
Procedure: as §1, §3

OCIAML5 cell line = test: MTT cell proliferation assay, OCIAML5; format: cell-based; conditions: Homo sapiens, OCI-AML-5, incubation approximately 64-72 hours
Procedure: as §1, with “×100. […]” for “×100.”

MOLT4 cell line = test: MTT cell proliferation assay, MOLT4; format: cell-based; conditions: Homo sapiens, MOLT-4, incubation approximately 64-72 hours
Procedure: as §1, with “×100. […]” for “×100.”

HCT-15 cell line = test: MTT cell proliferation assay, HCT-15; format: cell-based; conditions: Homo sapiens, incubation approximately 64-72 hours
Procedure: as §1, with “×100. […]” for “×100.”

MDA-MB-231 cell line = test: MTT cell proliferation assay, MDA-MB-231; format: cell-based; conditions: Homo sapiens, incubation approximately 64-72 hours
Procedure: as §1, with “×100. […]” for “×100.”

A549 cells = test: MTT cell proliferation assay, A549; format: cell-based; conditions: Homo sapiens, incubation approximately 64-72 hours
Procedure: as §1, with “×100. […]” for “×100.”

U2OS cell line = test: MTT cell proliferation assay, U2OS; format: cell-based; conditions: Homo sapiens, incubation approximately 64-72 hours
Procedure: as §1, with “×100. […]” for “×100.”

Colo-205 cell line = test: MTT cell proliferation assay, Colo-205; format: cell-based; conditions: Homo sapiens, incubation approximately 64-72 hours
Procedure: as §1, with “×100. […]” for “×100.”

LoVo cell line = test: MTT cell proliferation assay, LoVo; format: cell-based; conditions: Homo sapiens, incubation approximately 64-72 hours
Procedure: as §1, with “×100. […]” for “×100.”

DU-145 cell line = test: MTT cell proliferation assay, DU-145; format: cell-based; conditions: Homo sapiens, incubation approximately 64-72 hours
Procedure: as §1, with “×100. […]” for “×100.”

MDA-MB-468 cell line = test: MTT cell proliferation assay, MDA-MB-468; format: cell-based; conditions: Homo sapiens, incubation approximately 64-72 hours
Procedure: as §1, with “×100. […]” for “×100.”

M24 cell line = test: MTT cell proliferation assay, M24; format: cell-based; conditions: Homo sapiens, incubation approximately 64-72 hours
Procedure: as §1, with “×100. […]” for “×100.”

RPMI8226 cell line = test: MTT cell proliferation assay, RPMI8226; format: cell-based; conditions: Homo sapiens, RPMI-8226, incubation approximately 64-72 hours
Procedure: as §1, with “×100. […]” for “×100.”

MRC-5 cell line = test: MTT cell proliferation assay, MRC-5; format: cell-based; conditions: Homo sapiens, MRC5, incubation approximately 64-72 hours
Procedure: as §1, with “×100. […]” for “×100.”

DLD-1 cell line = test: MTT cell proliferation assay, DLD-1; format: cell-based; conditions: Homo sapiens, incubation approximately 64-72 hours
Procedure: as §1, with “×100. […]” for “×100.”

NHDF cells = test: MTT cell proliferation assay, NHDF; format: cell-based; conditions: Homo sapiens, incubation approximately 64-72 hours
Procedure: as §1, with “×100. […]” for “×100.”

[2] = approximately 64-72 hours incubation
[3] = eight concentrations 1 nM to 30 μM, incubation approximately 64-72 hours

IC50 (SNU-182 cell line): < 100 nM
SMILES: Nc1ccc(/C=C/C(=O)NCC2Cc3cc(-c4ccc(C(=O)N5CC(F)(F)C5)cc4)cc(Cl)c3O2)cn1 (centres unmarked) [Compound 226, (E)-3-(6-aminopyridin-3-yl)-N-((7-chloro-5-(4-(3,3-difluoroazetidine-1-carbonyl)phenyl)-2,3-dihydrobenzofuran-2-yl)methyl)acrylamide]
IC50 (Hep G2 cells): < 100 nM
IC50 (Z138 cells; [2]): < 100 nM
PAK4 total protein [1]: decrease
phosphorylation of PAK4 signaling proteins beta-catenin and cofilin [1]: decreases in phosphorylation
IC50 (HEP 3B cells): < 100 nM
IC50 (3T3 cells; [2]): 5 to 30 µM
IC50 (UCH-2 cell line): > 30 µM
IC50 (MS751 cells; [2]): < 100 nM

IC50 (Daudi cell line): < 100 nM
IC50 (HL-60 cells): 100 to 5000 nM
IC50 (THP1 cell line): 100 to 5000 nM
IC50 (MM1S cell line): < 100 nM
IC50 (MOLT4 cell line): < 100 nM
IC50 (HCT-15 cell line): < 100 nM
IC50 (MDA-MB-231 cell line): 100 to 5000 nM
IC50 (A549 cells): 100 to 5000 nM
SMILES: Nc1ccc(/C=C/C(=O)NCC2Cc3cc(-c4ccc(C(=O)N5CCOCC5)cc4)cc(Cl)c3O2)cn1 (centres unmarked) [Compound 302, (E)-3-(6-Aminopyridin-3-yl)-N-((7-chloro-5-(4-(morpholine-4-carbonyl)phenyl)-2,3-dihydrobenzofuran-2-yl)methyl)acrylamide]
IC50 (Hep G2 cells): < 100 nM
IC50 (Z138 cells; [2]): < 100 nM
IC50 (L3.6pl cell line): 100 to 5000 nM
IC50 (LN18 cell line): 100 to 5000 nM
IC50 (3T3 cells; [2]): 0.1 to 5 µM
IC50 (OCIAML5 cell line): < 100 nM
IC50 (MS751 cells; [2]): < 100 nM

IC50 (U2OS cell line): < 100 nM
IC50 (Colo-205 cell line): 100 to 5000 nM
IC50 (LoVo cell line): 100 to 5000 nM
IC50 (DU-145 cell line): 100 to 5000 nM
IC50 (MDA-MB-468 cell line): 100 to 5000 nM
IC50 (MM1S cell line): < 100 nM
IC50 (RPMI8226 cell line): 100 to 5000 nM
IC50 (HCT-15 cell line): 100 to 5000 nM
IC50 (MDA-MB-231 cell line): 100 to 5000 nM
IC50 (DLD-1 cell line): 100 to 5000 nM
SMILES: CC(O)c1ccc(-c2cc(Cl)c3c(c2)CC(CNC(=O)/C=C/c2cccnc2)O3)s1 (centres unmarked) [Compound 124]
IC50 (Hep G2 cells): 100 to 5000 nM
IC50 (Z138 cells; [3]): < 100 nM
PAK4 total protein [1]: decrease
phosphorylation of PAK4 signaling proteins beta-catenin and cofilin [1]: decreases in phosphorylation
IC50 (HEP 3B cells): 100 to 5000 nM
IC50 (3T3 cells; [3]): 0.1 to 5 µM
IC50 (M24 cell line): 100 to 5000 nM
IC50 (MRC-5 cell line): < 100 nM
IC50 (MS751 cells; [3]): < 100 nM
IC50 (NHDF cells): 100 to 5000 nM

Reference: patent publication US9938258B2 (Karyopharm Therapeutics Inc., priority 2012, dated 2018)
